Experiments:
Assay type in all cases: functional
[1] = system: Radical scavenging activity; test: Antioxidant activity assessed as DPPH free radical scavenging activity at 100 ug/ml by spectrophotometric analysis relative to control
[2] = system: Aspergillus fumigatus; test: Antifungal activity against Aspergillus fumigatus assessed as growth inhibition at 1 mg/ml by cup-plate method; details: read-out: IZ
[3] = system: Aspergillus flavus; test: Antifungal activity against Aspergillus flavus assessed as growth inhibition at 1 mg/ml by cup-plate method; details: read-out: IZ
[4] = system: Aspergillus niger; test: Antifungal activity against Aspergillus niger assessed as growth inhibition at 1 mg/ml by cup-plate method; details: read-out: IZ
[5] = system: Pseudomonas putida; test: Antibacterial activity against Pseudomonas putida assessed as growth inhibition at 1 mg/ml by cup-plate method; details: read-out: IZ
[6] = system: Bacillus subtilis; test: Antibacterial activity against Bacillus subtilis assessed as growth inhibition at 1 mg/ml by cup-plate method; details: read-out: IZ
[7] = system: Escherichia coli; test: Antibacterial activity against Escherichia coli assessed as growth inhibition at 1 mg/ml by cup-plate method; details: read-out: IZ
[8] = system: Radical scavenging activity; test: Antioxidant activity assessed as DPPH free radical scavenging activity at 50 ug/ml by spectrophotometric analysis relative to control
[9] = system: Radical scavenging activity; test: Antioxidant activity assessed as DPPH free radical scavenging activity at 25 ug/ml by spectrophotometric analysis relative to control
[10] = system: Radical scavenging activity; test: Antioxidant activity assessed as DPPH free radical scavenging activity at 75 ug/ml by spectrophotometric analysis relative to control

Structure (SMILES) | Activity [1] [%] | zone of inhibition at 1000 µg/mL [2] [mm] | zone of inhibition at 1000 µg/mL [3] [mm] | zone of inhibition at 1000 µg/mL [4] [mm] | zone of inhibition at 1000 µg/mL [5] [mm] | zone of inhibition at 1000 µg/mL [6] [mm] | zone of inhibition at 1000 µg/mL [7] [mm] | Activity [8] [%] | Activity [9] [%] | Activity [10] [%]
Cc1ccc2[nH]c3c(c2c1)c1ccccc1c(=O)n3C(=O)n1nc(C)cc1C | 64.7 | 11 | 16 | 8 | 10 | 11 | 13 | – | – | –
OC(Cn1cncn1)(Cn1cncn1)c1ccc(F)cc1F [FLUCONAZOLE] | – | 18 | 19 | 18 | – | – | – | – | – | –
Cc1ccc2[nH]c3c(c2c1)c1ccccc1c(=O)n3-c1n[nH]c(=S)o1 | – | 10 | 13 | 8 | 19 | 11 | 11 | 65.4 | 57.7 | –
CC1=NN(C(=O)n2c(=O)c3ccccc3c3c4cc(C)ccc4[nH]c32)C(=O)C1 | – | 15 | 14 | 12 | 18 | 8 | 10 | 64.2 | 58 | 56.5
COc1ccc2[nH]c3c(c2c1)c1ccccc1c(=O)n3-c1n[nH]c(=S)o1 | – | 15 | 10 | 10 | 7 | 10 | 13 | 67.8 | 60.8 | –
CC1=NN(C(=O)n2c(=O)c3ccccc3c3c4cc(Cl)ccc4[nH]c32)C(=O)C1 | – | 13 | 9 | 6 | 15 | 10 | 7 | – | 67.5 | –
CN[C@@H]1[C@H](O[C@H]2[C@H](O[C@H]3[C@H](O)[C@@H](O)[C@H](N=C(N)N)[C@@H](O)[C@@H]3N=C(N)N)O[C@@H](C)[C@]2(O)C=O)O[C@@H](CO)[C@H](O)[C@H]1O [STREPTOMYCIN] | – | – | – | – | 22 | 20 | 19 | – | – | –
COc1ccc2[nH]c3c(c2c1)c1ccccc1c(=O)n3C(=O)N1N=C(C)CC1=O | – | 4 | 7 | 9 | 10 | 10 | 17 | – | – | –
O=C(n1nc(-c2ccccc2)cc1-c1ccccc1)n1c(=O)c2ccccc2c2c3cc(Cl)ccc3[nH]c21 | – | 15 | 9 | 4 | 18 | 13 | 10 | – | – | –
O=c1c2ccccc2c2c3cc(Cl)ccc3[nH]c2n1-c1n[nH]c(=S)o1 | 68.9 | 17 | 16 | 17 | 20 | 19 | 18 | 69.8 | 68.3 | 58
Cc1ccc2[nH]c3c(c2c1)c1ccccc1c(=O)n3C(=O)n1nc(-c2ccccc2)cc1-c1ccccc1 | – | 4 | 13 | 15 | 13 | 9 | 5 | 56.9 | 56.2 | –
Cc1cc(C)n(C(=O)n2c(=O)c3ccccc3c3c4cc(Cl)ccc4[nH]c32)n1 | – | 15 | 11 | 16 | 19 | 11 | 9 | – | – | –
COc1ccc2[nH]c3c(c2c1)c1ccccc1c(=O)n3C(=O)n1nc(-c2ccccc2)cc1-c1ccccc1 | – | 15 | 17 | 9 | 17 | 11 | 11 | – | 60 | –
COc1ccc2[nH]c3c(c2c1)c1ccccc1c(=O)n3C(=O)n1nc(C)cc1C | – | 4 | 8 | 10 | 10 | 8 | 11 | – | – | 53.8

— ChEMBL document CHEMBL3045682, “Synthesis of some new indolo[2,3-c]isoquinolinyl pyrazoles, -1,3,4-oxadiazoles and their biological activities” (2013)
